Data on two compounds can be found in patent publication US20080153849A1, “Process for the Preparation of Crystalline (6Rrs)-N(5)-Formyl-5,6,7,8-Tetrahydrofolic Acid” (priority 2004, published 2008).

The series is described as follows: Storage stability of the solid in a refrigerator (HPLC assay and purity). Type of series: physicochemical. The note with it: for Assay (HPLC) / Purity (HPLC): solid stored at 2° C. to 8° C. The method, then: This solid was stored at a temperature from 2° C. to 8° C. in a refrigerator. Thereby the following stability dates were obtained for this solid: […]

With `Nc1nc2c(c(=O)[nH]1)N(C=O)[C@@H](CNc1ccc(C(=O)N[C@@H](CCC(=O)O)C(=O)O)cc1)CN2` [Example 2, (6S)-N(5)-formyl-5,6,7,8-tetrahydrofolic acid], where the note is “general statement in words”, the “Stability of the solid compared with crystalline (6RS)-folinic acid” value was “stability comparable with the crystalline (6RS)-folinic acid”. The “Assay (HPLC)” value came out at 99.0% (time 0 months); 98.5% (time 1 month); 98.1% (time 2 months); 98.9% (time 3 months); 98.1% (time 6 months); 97.8% (time 12 months). Moreover, the “Purity (HPLC)” value (time 0 months) was 99.2%; the “Purity (HPLC)” value (time 1 month) is on record as 99.0%; the “Purity (HPLC)” value (time 2 months) is recorded as 98.9%; the “Purity (HPLC)” value (time 3 months) was 98.9%; the “Purity (HPLC)” value (time 6 months) is 98.4%; the “Purity (HPLC)” value (time 12 months) amounted to 97.2%.

On to `Nc1nc2c(c(=O)[nH]1)N(C=O)C(CNc1ccc(C(=O)N[C@@H](CCC(=O)O)C(=O)O)cc1)CN2` (mixture of isomers) [Example 1, (6RS)-N(5)-formyl-5,6,7,8-tetrahydrofolic acid], for which the “Assay (HPLC)” value turned out to be 99.4% (time 0 months); 99.0% (time 3 months); 99.1% (time 6 months); 100.2% (time 9 months); 99.9% (time 12 months). Also, the “Purity (HPLC)” value stood at 99.78% (time 0 months); 99.79% (time 3 months); 99.75% (time 6 months); 99.82% (time 9 months); 99.79% (time 12 months).
